Patent publication US11059795B2, “Androgen receptor modulators and methods for their use” (ESSA Pharma, Inc., priority 2018, dated 2021)
Where a name gives a salt, the structure may show the parent alone.

Legend:
[1] = Microsomal stability assay, human liver microsomes; format: in vitro ADME; conditions: pH 7.4, 1 μM compound, 0.5 mg/mL protein, 37° C., read-out: HLM +/− NADPH: Clint (μL/min/mg protein)
Procedure: (§1) Microsomal stability assay is a widely used in vitro model to characterize the metabolic conversion by phase I enzymes, such as cytochrome P450 (CYP) enzymes. Since metabolism is known to be highly variable in different species, microsomal stability assay is commonly run in multiple species. Metabolic stability of testing compound can be evaluated using human, rat, mouse, or other animal liver or intestine microsomes to predict intrinsic clearance.
(§2) The assay was carried out in 96-well microtiter plates at 37° C. Reaction mixtures (25 μL) contained a final concentration of 1 μM test compound, 0.5 mg/mL liver microsomes protein, and 1 mM NADPH and/or 1 mM UDPGA (with alamethicin) in 100 mM potassium phosphate, pH 7.4 buffer with 3 mM MgCl2. The incubation was done with N=1, but duplicate incubation at each time point can be prepared if necessary. At each of the time points (for example, 0, 15, 30, and 60 minutes), 150 μL of quench solution (100% acetonitrile with 0.1% formic acid) with internal standard was transferred to each well. Besides the zero minute controls, mixtures containing the same components except the NADPH can also be prepared as the negative control. Verapamil was included as a positive control to verify assay performance. Plates were sealed, vortexed, and centrifuged at 4° C. for 15 minutes at 4000 rpm. The supernatant is transferred to fresh plates for LC/MS/MS analysis.
(§3) Summarized conditions: [Compound]=[…], [LM]=0.5 mg/mL, [NADPH]=1 mM and/or [UDPGA]=1 mM, Buffer=100 mM Potassium Phosphate, pH 7.4 with 3 mM MgCl2, Time=0, 15, 30, and 60 min, and Temperature=37° C.
(§4) All samples were analyzed on LC/MS/MS using an AB Sciex API 4000 instrument, coupled to a Shimadzu LC-20AD LC Pump system. Analytical samples were separated using a Waters Atlantis T3 dC18 reverse phase HPLC column (20 mm×2.1 mm) at a flow rate of 0.5 mL/min. The mobile phase consisted of 0.1% formic acid in water (solvent A) and 0.1% formic acid in 100% acetonitrile (solvent B).
(§5) The extent of metabolism is calculated as the disappearance of the test compound, compared to the 0-min time incubation. Initial rates are calculated for the compound concentration and used to determine half-life (t½) values and subsequently, the intrinsic clearance (Clint). Clint=(0.693)(1/t½ (min))(g of liver/kg of body weight)(mL incubation/mg of microsomal protein)(45 mg of microsomal protein/g of liver weight)

[2] = biological target: T1, androgen receptor (AR) (Homo sapiens, UniProt P10275, T878A); assay: Androgen-induced PSA (6.1 kb)-luciferase reporter assay in LNCaP cells; format: cell-based; conditions: LNCaP cells transfected with PSA (6.1 kb)-luciferase reporter, R1881 1 nM, 24 h; read-out: PSA-Luc IC50 Range
T1 construct: LNCaP cells were transiently transfected with the PSA (6.1 kb)-luciferase reporter for 24 h; endogenous in cells; host or cells: LNCaP
T1 sequence (P10275 1-920 T878A): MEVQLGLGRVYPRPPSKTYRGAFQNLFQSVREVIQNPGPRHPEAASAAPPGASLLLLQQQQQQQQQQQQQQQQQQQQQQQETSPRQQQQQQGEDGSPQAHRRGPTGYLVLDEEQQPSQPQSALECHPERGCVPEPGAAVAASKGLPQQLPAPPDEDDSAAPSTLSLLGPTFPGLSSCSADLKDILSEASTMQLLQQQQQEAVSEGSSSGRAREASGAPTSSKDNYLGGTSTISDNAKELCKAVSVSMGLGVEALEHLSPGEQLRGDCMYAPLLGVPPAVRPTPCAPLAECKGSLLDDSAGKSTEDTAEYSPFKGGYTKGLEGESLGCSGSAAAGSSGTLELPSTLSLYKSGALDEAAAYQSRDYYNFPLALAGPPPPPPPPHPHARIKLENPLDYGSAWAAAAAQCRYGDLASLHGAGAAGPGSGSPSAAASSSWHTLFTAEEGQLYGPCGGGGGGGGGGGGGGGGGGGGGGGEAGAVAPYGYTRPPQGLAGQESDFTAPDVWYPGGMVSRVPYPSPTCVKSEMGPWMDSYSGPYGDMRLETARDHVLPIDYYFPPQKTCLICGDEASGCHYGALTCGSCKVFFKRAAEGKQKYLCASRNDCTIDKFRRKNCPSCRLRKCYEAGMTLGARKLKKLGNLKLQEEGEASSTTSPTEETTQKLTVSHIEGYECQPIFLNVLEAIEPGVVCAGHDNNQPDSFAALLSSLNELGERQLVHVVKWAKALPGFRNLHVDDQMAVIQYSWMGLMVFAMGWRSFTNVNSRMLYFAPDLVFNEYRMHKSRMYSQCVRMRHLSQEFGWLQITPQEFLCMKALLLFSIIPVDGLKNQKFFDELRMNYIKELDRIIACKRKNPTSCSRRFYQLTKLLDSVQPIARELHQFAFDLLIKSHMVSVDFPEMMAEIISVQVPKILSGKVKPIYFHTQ
Procedure: The PSA (6.1 kb)-luciferase reporter contains functional AREs (androgen response elements) to which AR binds in response to androgen to induce luciferase activity.
Cells were lysed using Passive Lysis Buffer (Promega) and then collected into V-bottom 96-well tissue culture plates. Lysates were centrifuged at 4° C. for 5 minutes at 3000 rpm. To measure luminescence of LNCaP cell lysates the Firefly Luciferase Assay System (Promega) was employed, according to manufacturer's protocol. Relative luminescence units (RLU) in cell lysates were detected for 10 seconds using Promega GloMax-Multi Detection Luminometer (Promega). Values were normalized to protein content. GraphPad Prism graphing software was used to calculate IC50 values.
Comparisons between treatment and control groups were compared using Two-Way ANOVA with post-hoc Dunnett's and Tukey's tests. Differences were considered statistically significant at P values less than 0.05.

[3] = Microsomal stability assay, mouse liver microsomes; format: in vitro ADME; conditions: mouse, liver microsomes, pH 7.4, mouse liver microsomes, 1 μM compound, 0.5 mg/mL protein, 37° C.; read-out: MLM +30/− NADPH: Clint (μL/min/mg protein)
Procedure: as §1, §2, §3, §4, §5

SMILES | microsomal CLint at 1 μM [1] [µL/min/mg] | IC50 [2] [nM] | microsomal CLint at 1 μM [3] [µL/min/mg]
CC(C)(c1ccc(OCc2ocnc2S(C)(=O)=O)cc1)c1cc(Cl)c(OCCCCl)c(Cl)c1 [Compound A3, 5-[[4-[1-[3,5-dichloro-4-(3-chloropropoxy)phenyl]-1-methyl-ethyl]phenoxy]methyl]-4-methylsulfonyl-oxazole] | < 12 | 500 to 2000 | < 12
CC(C)(c1cnc(NCc2ocnc2S(C)(=O)=O)nc1)c1cc(Cl)c(OCCCl)c(Cl)c1 [Compound A27] | < 12 | > 2000 | ≥ 48
CC(C)(c1cc(Cl)c(OCCCl)c(Cl)c1)c1ccc(OCc2ocnc2S(C)(=O)=O)c(C#N)c1 [Compound A30] | 12 to 48 | 500 to 2000 | 12 to 48
CC(C)(c1ccc(NCc2ocnc2S(C)(=O)=O)cc1)c1cc(Cl)c(OCCCl)c(Cl)c1 [Compound A32, 4-(2-(3,5-dichloro-4-(2-chloroethoxy)phenyl)propan-2-yl)-N-((4-(methylsulfonyl)oxazol-5-yl)methyl)aniline Hydrochloride] | 12 to 48 | > 2000 | ≥ 48
Cc1nc(S(C)(=O)=O)c(COc2ccc(C(C)(C)c3cc(Cl)c(OCCCl)c(Cl)c3)cc2)o1 [Compound A34] | < 12 | 500 to 2000 | 12 to 48
CC(C)(c1ccc(OCc2nccc(NS(C)(=O)=O)n2)cc1)c1cc(Cl)c(OCCCl)c(Cl)c1 [Compound A42] | < 12 | 500 to 2000 | < 12
CC(C)(c1ccc(OCc2ocnc2C(N)=O)cc1)c1cc(Cl)c(OCCCl)c(Cl)c1 [Compound A45] | < 12 | 500 to 2000 | < 12
CC(C)(c1ccc(NC(=O)c2coc(NS(C)(=O)=O)n2)cc1)c1cc(Cl)c(OCCCl)c(Cl)c1 [Compound A49, N-(4-(2-(3,5-Dichloro-4-(2-chloroethoxy)phenyl)propan-2-yl)phenyl)-2-(methylsulfonamido)oxazole-4-carboxamide] | 12 to 48 | > 2000 | < 12
CC(C)(c1ccc(OCc2cnc(S(C)(=O)=O)o2)cc1)c1cc(Cl)c(OCCCl)c(Cl)c1 [Compound A57] | 12 to 48 | < 500 | ≥ 48
CC(C)(c1ccc(OCc2ocnc2C#N)cc1)c1cc(Cl)c(OCCCl)c(Cl)c1 [Compound A65] | 12 to 48 | 500 to 2000 | 12 to 48
CC(C)(c1ccc(OCc2coc(S(C)(=O)=O)n2)cc1)c1cc(Cl)c(OCCCl)c(Cl)c1 [Compound A68] | < 12 | < 500 | < 12
CC(C)(c1ccc(NC(=O)c2ocnc2S(C)(=O)=O)cc1)c1cc(Cl)c(OCCCl)c(Cl)c1 [Compound A73] | < 12 | 500 to 2000 | < 12
CC(O)(c1ccc(OCc2ocnc2S(C)(=O)=O)cc1)c1cc(Cl)c(OCCCl)c(C#N)c1 (centres unmarked) [Compound A77] | 12 to 48 | 500 to 2000 | ≥ 48
Cn1c(COc2ccc(C(C)(C)c3cc(Cl)c(OCCCl)c(Cl)c3)cc2)cnc1S(C)(=O)=O [Compound A78] | < 12 | 500 to 2000 | < 12
C[C@@](O)(c1ccc(OCc2ocnc2S(C)(=O)=O)cc1)c1cc(Cl)c(OCCCl)c(C#N)c1 [Compound A107] | 12 to 48 | > 2000 | 
COc1c(Cl)cc(C(C)(C)c2ccc(OCc3coc(NS(C)(=O)=O)n3)cc2)cc1C#N [Compound A161] | < 12 |  | < 12
CC(C)(c1ccc(N2C(=O)N(N)C(C)(C)C2=O)cc1)c1cc(Cl)c(OCCCl)c(Cl)c1 [Compound B6] | 12 to 48 | > 2000 | 
CN1C(=O)N(Cc2ccc(C(C)(C)c3cc(Cl)c(OCCCl)c(Cl)c3)cc2C#N)C(=O)C1(C)C [Compound B8] | ≥ 48 | 500 to 2000 | 
